The text below walks through data of ChEMBL document CHEMBL4270497, “Recent advances (2015-2016) in anticancer hybrids” (Eur J Med Chem, 2017).

The subject of one data set is HeLa. As to the kind of experiment: Antiproliferative activity against human HeLa cells incubated for 48 hrs by MTT assay. Format: functional, cell-based.
Data set [1] has as its system MCF7. As to the kind of experiment: Antiproliferative activity against human MCF7 cells incubated for 48 hrs by MTT assay. In kind it is functional, cell-based. The conditions noted are these: MCF7, 48 h.
In data set [2] the test system is A549. Nature of the data set: Antiproliferative activity against human A549 cells incubated for 48 hrs by MTT assay. Format: functional, cell-based. The conditions noted are these: A549, 48 h. (In general: Formazan colour is commonly taken as a measure of viable cells.)
The next data set concerns HCT-116. Nature of the data set: Antiproliferative activity against human HCT116 cells incubated for 48 hrs by MTT assay. In kind it is functional, cell-based. The conditions noted are these: HCT-116, 48 h.
For data set [3], the system named is A549. As to the kind of experiment: Cytotoxicity in human A549 cells assessed a reduction in cell viability incubated for 48 hrs by MTT assay. In kind it is functional, cell-based. The conditions noted are these: A549, 48 h.
Data set [4] relates to MCF7. As to the kind of experiment: Cytotoxicity in human MCF7 cells assessed as reduction in cell viability incubated for 48 hrs by MTT assay. Format: functional, cell-based. The conditions noted are these: MCF7, 48 h.
For another data set, the system named is A498. As to the kind of experiment: Growth inhibition of human A498 cells at 10 uM. Format: functional. The conditions noted are these: read-out: GI.
Data set [5] concerns MDA-MB-231. Nature of the data set: Growth inhibition of human MDA-MB-231 cells at 10 uM. In kind it is functional. The conditions noted are these: read-out: GI.
The subject of data set [6] is HEK293. Nature of the data set: Cytotoxicity in HEK293 cells at 100 uM by MTT assay. Format: cell-based. The conditions noted are these: human, hek293, 100 µM.
In data set [7] the test system is MDA-MB-231. Nature of the data set: cells. The conditions noted are these: Homo sapiens, MDA-MB-231, 24 h.
Description: Cytotoxicity in human MDA-MB-231 cells assessed as reduction in cell viability incubated for 24 hrs by MTT assay
A further data set concerns the target Tyrosinase (Agaricus bisporus, UniProt O42713). As to the kind of experiment: Inhibition of diphenolase activity of mushroom tyrosinase pre-incubated for 30 mins before L-DOPA substrate addition and measured after 1 min by spectrophotometric assay.
For another data set, the system named is KB. As to the kind of experiment: Cytotoxicity in human KB cells assessed as reduction in cell viability. In kind it is functional, cell-based.
The test system of data set [8] is HT-29. As to the kind of experiment: Antiproliferative activity against human HT-29 cells incubated for 48 hrs by MTT assay. Format: functional, cell-based. The conditions noted are these: HT-29, 48 h.
A further data set deals with DU-145. As to the kind of experiment: Antiproliferative activity against human DU145 cells incubated for 48 hrs by MTT assay. In kind it is functional, cell-based. The conditions noted are these: DU-145, 48 h.
Data set [9] deals with HEK293. As to the kind of experiment: Antiproliferative activity against HEK293 cells incubated for 48 hrs by MTT assay. Format: cell-based. The conditions noted are these: Homo sapiens, HEK293, 48 h.
For a further data set, the system named is REH. Nature of the data set: Cytotoxicity in human REH cells assessed as reduction in cell viability incubated for 48 to 72 hrs by trypan blue dye exclusion assay. Format: functional, cell-based.
Data set [10] deals with K562. Nature of the data set: Cytotoxicity in human K562 cells assessed as reduction in cell viability incubated for 48 to 72 hrs by trypan blue dye exclusion assay. Format: functional, cell-based.
Data set [11] addresses Vascular endothelial growth factor receptor 1 (Homo sapiens, UniProt P17948). As to the kind of experiment: Inhibition of VEGFR1 (unknown origin) using KKKSPGEYVNIEFG substrate and [33P-g-ATP] incubated for 30 mins.
The test system of data set [12] is HUVEC. Nature of the data set: Inhibition of VEGF-induced cell migration of HUVEC assessed as wound closure level at cytotoxic IC50 incubated for 24 hrs (reference value: 100%). Format: functional, Homo sapiens. Further details: scale not given: the % may be the effect or the level left.
Data set [13] has as its system HT-29. As to the kind of experiment: Cytotoxicity in human HT-29 cells assessed as reduction in cell viability incubated for 48 hrs by MTT assay. The conditions noted are these: HT-29, 48 h. In kind it is functional, cell-based.
For data set [14], the system named is PC-3. As to the kind of experiment: Cytotoxicity in human PC3 cells assessed as reduction in cell viability incubated for 48 hrs by MTT assay. In kind it is functional, cell-based. The conditions noted are these: PC-3, 48 h.
Data set [15] deals with A549. Nature of the data set: Cytotoxicity in human A549 cells assessed as reduction in cell viability incubated for 48 hrs by MTT assay. In kind it is functional, cell-based. The conditions noted are these: A549, 48 h.
In another data set the test system is U-87 MG. Nature of the data set: Cytotoxicity in human U87MG cells assessed as reduction in cell viability incubated for 48 hrs by MTT assay. Format: functional, cell-based, U-87MG ATCC.
Data set [16] has as its system MDA-MB-231. As to the kind of experiment: Antiproliferative activity against human MDA-MB-231 cells incubated for 48 hrs by MTT assay. Format: functional, cell-based. The conditions noted are these: MDA-MB-231, 48 h.
A further data set relates to SK-OV-3. As to the kind of experiment: Antiproliferative activity against human SKOV3 cells incubated for 48 hrs by MTT assay. Format: functional, cell-based. The conditions noted are these: SK-OV-3, 48 h.
Data set [17] relates to HUVEC. Nature of the data set: Antiproliferative activity against human HUVEC cells incubated for 48 hrs by MTT assay. Format: functional, cell-based.
The test system of another data set is Bel-7402. As to the kind of experiment: Antiproliferative activity against human Bel7402 cells incubated for 48 hrs by MTT assay. Format: functional. The conditions noted are these: Bel-7402, 48 h.
Data set [18] concerns PC-3. As to the kind of experiment: Antiproliferative activity against human PC3 cells incubated for 48 hrs by MTT assay. In kind it is functional. The conditions noted are these: PC-3, 48 h.
Data set [19] relates to K562. As to the kind of experiment: Antiproliferative activity against human K562 cells incubated for 48 hrs by MTT assay. Format: functional. The conditions noted are these: K562, 48 h.

Values after ≈ are worked out from the molar mass of the structure shown.

A word on the IC50: it is the concentration at which inhibition is half-maximal. In general, GI50 refers to the concentration that inhibits growth by half.

Vascular endothelial growth factor receptor 1, sequence (P17948 whole entry): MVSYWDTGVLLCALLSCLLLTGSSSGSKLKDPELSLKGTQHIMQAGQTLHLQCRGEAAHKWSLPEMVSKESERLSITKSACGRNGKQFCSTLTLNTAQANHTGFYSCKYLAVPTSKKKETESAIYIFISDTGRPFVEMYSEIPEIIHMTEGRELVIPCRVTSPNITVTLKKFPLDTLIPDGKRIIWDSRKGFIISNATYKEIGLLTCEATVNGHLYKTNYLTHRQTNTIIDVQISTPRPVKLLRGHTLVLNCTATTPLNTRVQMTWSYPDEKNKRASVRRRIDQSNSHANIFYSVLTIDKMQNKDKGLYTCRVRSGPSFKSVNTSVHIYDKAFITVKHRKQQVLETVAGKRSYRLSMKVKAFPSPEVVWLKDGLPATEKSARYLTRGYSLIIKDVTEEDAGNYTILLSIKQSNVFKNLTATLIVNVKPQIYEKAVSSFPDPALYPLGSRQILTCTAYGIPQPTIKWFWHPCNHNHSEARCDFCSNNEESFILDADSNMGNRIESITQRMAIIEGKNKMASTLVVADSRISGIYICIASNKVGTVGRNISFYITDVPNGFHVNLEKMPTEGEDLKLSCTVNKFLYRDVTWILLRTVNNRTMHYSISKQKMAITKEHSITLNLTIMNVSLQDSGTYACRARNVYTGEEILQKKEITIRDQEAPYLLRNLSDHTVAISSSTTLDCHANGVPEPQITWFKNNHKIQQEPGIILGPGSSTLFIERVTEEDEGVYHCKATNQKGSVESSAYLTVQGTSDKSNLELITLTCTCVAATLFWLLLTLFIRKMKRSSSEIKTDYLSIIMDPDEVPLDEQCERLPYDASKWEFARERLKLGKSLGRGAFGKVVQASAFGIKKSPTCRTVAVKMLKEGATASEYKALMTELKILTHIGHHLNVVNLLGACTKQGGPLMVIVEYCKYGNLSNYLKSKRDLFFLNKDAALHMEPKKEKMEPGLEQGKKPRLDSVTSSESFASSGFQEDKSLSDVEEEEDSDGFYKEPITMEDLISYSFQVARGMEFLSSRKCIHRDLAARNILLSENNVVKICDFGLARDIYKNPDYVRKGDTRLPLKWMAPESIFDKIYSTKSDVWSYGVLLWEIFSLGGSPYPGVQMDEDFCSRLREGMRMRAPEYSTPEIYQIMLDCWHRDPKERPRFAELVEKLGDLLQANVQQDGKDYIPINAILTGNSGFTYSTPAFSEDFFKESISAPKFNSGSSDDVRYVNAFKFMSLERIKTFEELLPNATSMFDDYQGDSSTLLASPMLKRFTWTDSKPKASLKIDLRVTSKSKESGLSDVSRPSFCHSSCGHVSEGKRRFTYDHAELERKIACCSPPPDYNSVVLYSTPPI
Tyrosinase, sequence (O42713 whole entry): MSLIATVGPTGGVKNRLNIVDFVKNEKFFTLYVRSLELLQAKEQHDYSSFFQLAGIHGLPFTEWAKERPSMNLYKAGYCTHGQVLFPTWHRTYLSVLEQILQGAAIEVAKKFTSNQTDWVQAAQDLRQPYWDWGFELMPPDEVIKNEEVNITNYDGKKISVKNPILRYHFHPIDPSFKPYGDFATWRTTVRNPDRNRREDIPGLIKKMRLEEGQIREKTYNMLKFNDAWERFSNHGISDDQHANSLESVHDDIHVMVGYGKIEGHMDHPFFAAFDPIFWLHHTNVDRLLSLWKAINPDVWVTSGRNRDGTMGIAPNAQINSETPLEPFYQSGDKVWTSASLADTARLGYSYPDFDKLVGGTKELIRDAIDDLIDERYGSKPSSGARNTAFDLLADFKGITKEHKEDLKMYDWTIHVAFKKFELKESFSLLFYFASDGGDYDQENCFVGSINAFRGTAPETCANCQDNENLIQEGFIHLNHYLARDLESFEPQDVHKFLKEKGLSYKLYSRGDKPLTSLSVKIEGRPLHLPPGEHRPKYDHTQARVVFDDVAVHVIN

With `COc1ccc(N/C=C/C(=O)c2cccnc2Nc2cc(OC)c(OC)c(OC)c2)cc1`, the IC50 in the data set with HeLa, with MCF7 [1], in the data set with A549 [2] and in the data set with HCT-116 was 510 to 1290 nM each time.
`COc1cc(-c2nc(/C=C/C(=O)c3ccc(O)cc3)cc3c2[nH]c2ccccc23)cc(OC)c1OC` gave an IC50 in the data set with A549 [3] of less than 10 µM.
`COc1cc(-c2nc(/C=C/C(=O)c3ccc([N+](=O)[O-])cc3)cc3c2[nH]c2ccccc23)ccc1F` displayed an IC50 in the data set on A549 [3] of less than 10 µM.
As to `O=Cc1c(-c2cc3cc(Br)ccc3oc2=O)[nH]c2ccccc12`, the half-inhibitory concentration (IC50) in the data set with MCF7 [4] was 7.4 µM.
For `O=C(/C=C/c1cc2c([nH]c3ccccc32)c(-c2ccc(F)cc2)n1)c1ccc([N+](=O)[O-])cc1`, in the data set on A549 [3], the IC50 was less than 10 µM.
Still for that read-out and setting: the result for `COc1ccc(-c2nc(/C=C/C(=O)c3ccc(N)cc3)cc3c2[nH]c2ccccc23)cc1OC` reads less than 10 µM.
For `COc1ccc(-c2cn3c(-c4ccc(OC)cc4)cnc3c(Oc3ccc4c(C)cc(=O)oc4c3)n2)cc1`, the inhibition of growth at 10 µM with A498 stood at 90%; in the data set on MDA-MB-231 [5] it was 93%. This molecule also returned an Activity with HEK293 [6] of 17%.
In the data set on A549 [3], `COc1cc(-c2nc(/C=C/C(=O)c3ccc(F)cc3)cc3c2[nH]c2ccccc23)ccc1F` gave an IC50 of less than 10 µM.
In the case of `CCCC(CC)NC(=O)c1c(C)[nH]c(/C=C2\C(=O)Nc3nc(C)c(O)c(C)c32)c1C` (centres undefined), the IC50 in the data set with MDA-MB-231 [7] amounted to 3.21 µM.
Consider `CN(C)c1ccc(C2CC(c3cc4ccccc4o3)=NN2C(=O)Nc2ccc(Cl)cc2)c2ccccc12` (centres undefined), for which, on Tyrosinase, it took 4.72 µM to reach half-maximal inhibition (IC50).
`COc1cc(C(=O)/C=C/c2cc3c([nH]c4ccccc43)c(-c3ccc(F)cc3)n2)cc(OC)c1OC` gave an IC50 in the data set on A549 [3] of less than 10 µM.
For `O=C(/C=C/c1ccc(/C=C/C(=O)c2cccc3c2C(=O)c2ccccc2C3=O)cc1)c1ccccc1`, the IC50 in the data set on KB is 0.66 µg/mL (≈ 1.41 µM).
Turning to `COc1cc(-c2nc(/C=C/C(=O)c3cc(OC)c(OC)c(OC)c3)cc3c2[nH]c2ccccc23)ccc1F`, the IC50 in the data set with A549 [3] was less than 10 µM.
On to `COc1cc(Cn2cc(C(=O)c3cccnc3Nc3ccc(F)cc3)nn2)cc(OC)c1`, for which the IC50 worked out at 3100 nM in the data set on HT-29 [8], 3000 nM with DU-145, 3900 nM with A549 [2] and 75.2 µM in the data set with HEK293 [9].
In the case of `COc1cc(C(=O)N/N=C2\C(=O)Nc3ccc(C)cc32)cc(OC)c1OC`, the IC50 in the data set with REH was determined as 500 nM; in the data set with K562 [10], 2000 nM.
On to `O=C(c1cn(Cc2cccc(Oc3ccccc3)c2)nn1)c1cccnc1Nc1ccc(F)cc1`, for which the IC50 in the data set on HT-29 [8] amounted to 200 nM; in the data set with DU-145 it was 100 nM; with A549 [2], 1100 nM; in the data set with HEK293 [9], 59.6 µM.
In turn, `O=C(Nc1ccc(F)cc1)c1sccc1Nc1cccc2c1OCCO2` yielded an IC50 in data set [11] of 1900 nM. Besides, in the data set on HUVEC [12], the Activity is given as 20%.
Molecule `COc1cc(-c2nc(/C=C/C(=O)c3ccc(N)cc3)cc3c2[nH]c2ccccc23)ccc1F` gave an IC50 with A549 [3] of less than 10 µM.
`COc1ccc(Cn2cc(C(=O)c3cn(-c4ccccc4)nc3-c3ccc(F)cc3)nn2)cc1OC`: the IC50 is 2540 nM in the data set on HT-29 [13], 5.87 µM in the data set on PC-3 [14], 2130 nM in the data set with A549 [15] and 3.76 µM with U-87 MG.
On to `CC12CCC(OC(=O)CCC(=O)OCCOc3no[n+]([O-])c3S(=O)(=O)c3ccccc3)CC1=CCC1C2CCC2(C)c3c(cnn3-c3ccccc3)CC12` (centres undefined), for which the IC50 in the data set on DU-145 is 20 nM; in the data set with MDA-MB-231 [16], 1.4 nM; with SK-OV-3 it was 3.4 nM; in the data set with HUVEC [17] it was 3.5 nM.
In the case of `COc1cc2c(c(OC)c1OC)C/C(=C\c1cccc3[nH]ccc13)C2=O`, the GI50 in the data set on HeLa, in the data set with A549 [2], with Bel-7402, in the data set with PC-3 [18] and in the data set with K562 [19] was 26 to 35 nM each time.
